Measurements as given in US20070249607A1, “NK-1 AND SEROTONIN TRANSPORTER INHIBITORS” (Bristol-Myers Squibb Company, priority 2006, published 2007).
Read-outs that look alike come from different tables or passages of the source.

Tests used:
[1] = target: T1, neurokinin-1 (NK-1) receptor (Homo sapiens, UniProt P25103); assay: NK-1 Binding assay ([125I] Substance P competition, U373 cell membranes); conditions: U373 membranes, [125I] Substance P displacement, read-out: NK-1 IC50
T1 construct: a human glioblastoma-astrocytoma cell line that endogenously expresses the neurokinin-1 (NK-1) receptor; endogenous in cells; host or cells: U373 human glioblastoma-astrocytoma cells (membranes)
T1 sequence (P25103 whole entry): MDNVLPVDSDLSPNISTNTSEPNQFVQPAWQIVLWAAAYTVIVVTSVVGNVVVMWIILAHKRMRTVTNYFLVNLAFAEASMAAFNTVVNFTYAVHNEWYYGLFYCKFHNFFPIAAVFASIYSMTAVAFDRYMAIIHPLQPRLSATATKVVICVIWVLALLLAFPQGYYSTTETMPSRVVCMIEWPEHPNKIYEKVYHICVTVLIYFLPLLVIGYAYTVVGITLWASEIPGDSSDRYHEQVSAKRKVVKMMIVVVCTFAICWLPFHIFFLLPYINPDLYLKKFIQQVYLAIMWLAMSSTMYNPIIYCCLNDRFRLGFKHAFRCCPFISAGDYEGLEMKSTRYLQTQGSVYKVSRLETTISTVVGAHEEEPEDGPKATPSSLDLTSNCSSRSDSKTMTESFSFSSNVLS
Method: NK-1 Binding assay. U373 cells, a human glioblastoma-astrocytoma cell line that endogenously expresses the neurokinin-1 (NK-1) receptor, were grown in a monolayer culture at 37° C. in 5% CO2 and fed with Minimum Essential Medium (MEM) supplemented with 10% fetal bovine serum. Membranes were prepared as follows: Cells were washed twice with ice-cold phosphate-buffered saline (pH 7.4) and then incubated for 5-10 minutes with ice-cold 10 mM Tris buffer (pH 7.4) containing 5 mM EDTA. Cells were removed from plates, homogenized, and centrifuged at 32,000×g for 20 minutes. The resulting supernatant was discarded, and the pellet resuspended by homogenization in 50 mM Tris buffer (pH 7.4) containing 1 mM EDTA and centrifuged at 32,000×g for 20 minutes. The resulting supernatant was discarded, and the pellet resuspended by homogenization in NK-1 binding assay buffer (50 mM Tris-HCL (pH 7.4), 3 mM MnCl2, 200 μg/ml BSA, 5 μg/ml chymostatin, 40 μg/ml bacitracin and 4 μg/ml leupeptin).
On the day of an experiment the membrane preparation was thawed, homogenized and diluted with NK-1 binding assay buffer to the appropriate concentration. […] Substance P, at a concentration of […], and concentrations of drugs ranging from 10000 to 0.01 nM. Samples were incubated for 30 min at 20° C. then filtered through GF/B glass fiber filters (pretreated with 1% polyethyleneimine and 0.3% Triton X-100) using a Brandel cell harvester. The filters were then washed with 10 ml ice cold 50 mM Tris-HCL (pH 7.4) containing 3 mM MgCl2. […] The amount of radioligand bound in the presence and absence of competitor was analyzed by plotting (-)log drug concentration versus the amount of radioligand specifically bound. The midpoint of the displacement curve (IC50, nM), signifies the potency.

[2] = target: T2, human serotonin transporters (Homo sapiens, UniProt P31645); assay: Serotonin transporter binding assay ([3H]-citalopram competition, HEK-hSERT cell membranes)
T2 construct: expressed in transfected cells
T2 sequence (P31645 whole entry): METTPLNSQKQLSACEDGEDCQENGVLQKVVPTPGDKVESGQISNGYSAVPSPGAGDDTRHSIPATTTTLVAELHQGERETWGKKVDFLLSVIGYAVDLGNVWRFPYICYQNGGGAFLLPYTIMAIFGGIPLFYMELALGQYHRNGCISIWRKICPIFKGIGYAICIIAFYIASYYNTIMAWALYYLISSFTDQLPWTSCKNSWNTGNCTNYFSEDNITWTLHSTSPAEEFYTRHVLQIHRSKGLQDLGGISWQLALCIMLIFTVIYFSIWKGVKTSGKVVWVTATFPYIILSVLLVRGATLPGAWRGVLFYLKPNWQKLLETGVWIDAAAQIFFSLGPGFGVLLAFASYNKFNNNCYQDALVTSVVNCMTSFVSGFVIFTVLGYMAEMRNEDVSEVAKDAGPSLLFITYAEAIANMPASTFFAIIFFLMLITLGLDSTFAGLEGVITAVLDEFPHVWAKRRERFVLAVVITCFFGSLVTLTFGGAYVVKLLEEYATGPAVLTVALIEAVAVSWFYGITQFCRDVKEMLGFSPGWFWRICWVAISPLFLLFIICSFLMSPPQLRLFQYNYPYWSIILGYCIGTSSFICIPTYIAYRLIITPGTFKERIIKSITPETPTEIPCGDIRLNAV
Method: Serotonin transporter binding assay. HEK-293 cells that stably express human serotonin transporters (HEK-hSERT cells) were grown at 37° C. in 5% CO2 as a monolayer in medium consisting of EMEM supplemented with 10% fetal bovine serum and G418 sulfate (500 μg/ml). To prepare membranes for radioligand binding experiments, cells were rinsed twice with phosphate-buffered saline (138 mM NaCl, 4.1 mM KCl, 5.1 mM Na2PO4, 1.5 mM KH2PO4, 11.1 mM glucose, pH 7.4). Cells were transferred from plates to polypropylene tubes (16×100 mm), centrifuged at 1,200×g for 5 min and were frozen at −80° C. until assay. Following centrifugation, pellets were resuspended by homogenization in buffer consisting of 50 mM Tris (pH 7.7 at 25° C.), 120 mM NaCl and 5 mM KCl and then centrifuged at 32,000×g for 10 min. Following centrifugation, supernatants were discarded and pellets were resuspended in buffer consisting of 50 mM Tris (pH 7.4 at 25° C.), 150 mM NaCl and 5 mM KCl. Membrane homogenates (200 μl/plate) were incubated with 1 nM [^3H]-citalopram (specific activity=85 Ci/mmol) and increasing concentrations of test compounds for 1 hr at 25° C. in a total volume of 250 μl. The assay buffer consisted of 50 mM Tris (pH 7.4 at 25° C.), 120 mM NaCl and 5 mM KCl (pH 7.4 with conc. HCl). Plates were incubated for 1 hr at 25° C., then filtered through 0.5% PEI treated Whatman GF/B filters using a Brandel cell harvester. Filters were washed three times with 3 ml of ice-cold tris wash buffer. Non-specific binding was defined with 10 μM fluoxetine. Amount of radioligand bound in the presence and absence of competitor was analyzed by plotting (-)log drug concentration versus the amount of radioligand specifically bound. The midpoint of the displacement curve (IC50, nM), signifies the potency. Ki values can be calculated using the method of Cheng and Prusoff (Cheng and Prusoff, BiochemicalPharmacology, Vol 22, pp. 3099-3108, Pergamon Press (1973)).

[3] = Table 1, HEK-hSERT membranes, [3H]-citalopram displacement, read-out: SERT IC50

IC50 ([1]; Table 1) [nM]	IC50 [2, 3] [nM]	IC50 ([1]; Table 2) [nM]	IC50 ([2]; Table 2, HEK-hSERT membranes, [3H]-citalopram displacement, read-out: SERT IC50) [nM]	SMILES	IC50 [2] [nM]
0.01 to 100	0.01 to 100	–	–	Cc1cccc(-c2cc(COCC3(c4ccccc4)CCNCC3)cc(C(F)(F)F)c2)c1	–
0.01 to 100	0.01 to 100	–	–	Fc1ccc(-c2cc(COCC3(c4ccccc4)CCNCC3)cc(C(F)(F)F)c2)cc1Cl	–
100 to 300	100 to 300	–	–	FC(F)(F)c1cc(COCC2(c3ccccc3)CCNCC2)cc(-c2cc(C(F)(F)F)cc(C(F)(F)F)c2)c1	–
100 to 300	0.01 to 100	–	–	FC(F)(F)c1cc(COCC2(c3ccccc3)CCNCC2)cc(-c2c(Cl)cccc2Cl)c1	–
> 300	> 300	–	–	FC(F)(F)c1cc(COCC2(c3ccccc3)CCNCC2)cc(-c2cccc3c2Sc2ccccc2S3)c1	–
100 to 300	0.01 to 100	–	–	FC(F)(F)c1cc(COCC2(c3ccccc3)CCNCC2)cc(-c2ccc(-c3ccccc3)cc2)c1	–
0.01 to 100	0.01 to 100	–	–	CSc1ccc(-c2cc(COCC3(c4ccccc4)CCNCC3)cc(C(F)(F)F)c2)cc1	–
100 to 300	0.01 to 100	–	–	Cc1ccccc1-c1cc(COCC2(c3ccccc3)CCNCC2)cc(C(F)(F)F)c1	–
> 300	100 to 300	–	–	FC(F)(F)c1cc(COCC2(c3ccccc3)CCNCC2)cc(-c2ccccc2-c2ccccc2)c1	–
0.01 to 100	0.01 to 100	–	–	FC(F)(F)c1ccc(-c2cc(COCC3(c4ccccc4)CCNCC3)cc(C(F)(F)F)c2)cc1	–
> 300	0.01 to 100	–	–	Cc1cc(C)cc(-c2cc(COCC3(c4ccccc4)CCNCC3)cc(C(F)(F)F)c2)c1	–
0.01 to 100	0.01 to 100	–	–	Cc1ccc(-c2cc(COCC3(c4ccccc4)CCNCC3)cc(C(F)(F)F)c2)cc1[N+](=O)[O-]	–
0.01 to 100	0.01 to 100	–	–	Fc1cccc(-c2cc(COCC3(c4ccccc4)CCNCC3)cc(C(F)(F)F)c2)c1	–
100 to 300	100 to 300	–	–	FC(F)(F)c1cc(COCC2(c3ccccc3)CCNCC2)cc(-c2ccc3ccccc3c2)c1	–
100 to 300	0.01 to 100	–	–	CCOc1cccc(-c2cc(COCC3(c4ccccc4)CCNCC3)cc(C(F)(F)F)c2)c1	–
0.01 to 100	0.01 to 100	–	–	Fc1ccccc1-c1cc(COCC2(c3ccccc3)CCNCC2)cc(C(F)(F)F)c1	–
100 to 300	0.01 to 100	–	–	COc1ccc(-c2ccc(C#N)nc2)cc1COCC1(c2ccccc2)CCNCC1	–
0.01 to 100	0.01 to 100	–	–	COc1ccc(-c2ccc(C#N)cc2)cc1COCC1(c2ccccc2)CCNCC1	–
0.01 to 100	0.01 to 100	–	–	N#Cc1ccc(-c2cc(COCC3(c4ccc(F)cc4)CCNCC3)cc(C(F)(F)F)c2)cc1	–
0.01 to 100	0.01 to 100	–	–	CC(OCC1(c2ccccc2)CCNCC1)c1cc(-c2ccc(C#N)cc2)cc(C(F)(F)F)c1 (stereo not drawn)	–
0.01 to 100	0.01 to 100	–	–	C[C@@H](OCC1(c2ccccc2)CCNCC1)c1cc(-c2ccc(C#N)cc2)cc(C(F)(F)F)c1	–
0.01 to 100	0.01 to 100	–	–	N#Cc1ccc(-c2cc(Br)cc(COCC3(c4ccccc4)CCNCC3)c2)cc1	–
–	–	0.01 to 100	0.01 to 100	N#Cc1ccc(-c2cc(COCC3(c4ccccc4)CCNCC3)cc(C(F)(F)F)c2)cc1F	–

SMILES	IC50 ([1]; Table 1) [nM]	IC50 [2, 3] [nM]	IC50 ([1]; Table 2) [nM]	IC50 ([2]; Table 2, HEK-hSERT membranes, [3H]-citalopram displacement, read-out: SERT IC50) [nM]	IC50 [2] [nM]
CN1CCC(COCc2cc(-c3ccc(C#N)cc3)cc(C(F)(F)F)c2)(c2ccccc2)CC1	0.01 to 100	–	–	–	0.01 to 100
CN1CCC(COCc2cc(-c3ccncc3)cc(C(F)(F)F)c2)(c2ccccc2)CC1	0.01 to 100	–	–	–	0.01 to 100
CN1CCC(COCc2cc(-c3ccc(C#N)cc3)cc(C(F)(F)F)c2)(c2ccc(F)cc2)CC1	0.01 to 100	–	–	–	0.01 to 100
CC(OCC1(c2ccccc2)CCN(C)CC1)c1cc(-c2ccc(C#N)cc2)cc(C(F)(F)F)c1 (stereo not drawn)	0.01 to 100	–	–	–	0.01 to 100
